Laboratory results reported in paper PMC6510372 (Clinical and Translational Science, 2019).
“Also recorded” adds a separate entry of the source.

Key:
[1] = test system: CYP3A; assay: Study 770-017: effect of ciprofloxacin; type: in vivo, human; conditions: ciprofloxacin 750 mg q12 h with tezacaftor 50 mg q12 h and ivacaftor 150 mg q12 h
[2] = test system: CYP3A; assay: Study 006 cohort 1: effect of itraconazole; type: in vivo, human; conditions: coadministration of itraconazole vs tezacaftor/ivacaftor alone
[3] = test system: CFTR; conditions: major circulating metabolites in humans; cited from earlier work
[4] = test system: CYP3A; conditions: human hepatocytes and recombinant human CYP; no reference given; cited from earlier work
[5] = test system: CYP3A; conditions: cited from earlier work
[6] = test system: CYP3A; conditions: in vitro; cited from earlier work
[7] = test system: CYP3A; conditions: cited from earlier work; remark: listed apart in the source
[8] = biological target: T1, P-gp (Homo sapiens, UniProt P08183); conditions: ivacaftor alone, digoxin as model P‐gp substrate; cited from earlier work
[9] = cited from earlier work
[10] = cited from earlier work; for Food effect on exposure: fat‐containing food vs fasted state
[11] = Steady-state PK of tezacaftor q.d./ivacaftor twice daily in patients with CF; type: in vivo; conditions: human, plasma, oral
[12] = test system: permeability glycoprotein (P‐gp) efflux transporter; conditions: ref 3 (tezacaftor), ref 6 (ivacaftor); cited from earlier work
[13] = biological target: T1, P-gp; assay: Study 006 cohort 2: effect of steady-state tezacaftor/ivacaftor on digoxin; type: in vivo; conditions: for CL renal: both, human, urine and plasma, oral
[14] = test system: CYP3A; assay: Study 006 cohort 2: effect of steady-state tezacaftor/ivacaftor on midazolam; type: in vivo, human; conditions: midazolam 2.0 mg single dose with/without TEZ 100 mg q.d./IVA 150 mg q12 h, oral, fed, healthy subjects
[15] = digoxin with tezacaftor 100 mg q.d./ivacaftor 150 mg q12 h vs digoxin alone

T1 sequence (P08183 whole entry): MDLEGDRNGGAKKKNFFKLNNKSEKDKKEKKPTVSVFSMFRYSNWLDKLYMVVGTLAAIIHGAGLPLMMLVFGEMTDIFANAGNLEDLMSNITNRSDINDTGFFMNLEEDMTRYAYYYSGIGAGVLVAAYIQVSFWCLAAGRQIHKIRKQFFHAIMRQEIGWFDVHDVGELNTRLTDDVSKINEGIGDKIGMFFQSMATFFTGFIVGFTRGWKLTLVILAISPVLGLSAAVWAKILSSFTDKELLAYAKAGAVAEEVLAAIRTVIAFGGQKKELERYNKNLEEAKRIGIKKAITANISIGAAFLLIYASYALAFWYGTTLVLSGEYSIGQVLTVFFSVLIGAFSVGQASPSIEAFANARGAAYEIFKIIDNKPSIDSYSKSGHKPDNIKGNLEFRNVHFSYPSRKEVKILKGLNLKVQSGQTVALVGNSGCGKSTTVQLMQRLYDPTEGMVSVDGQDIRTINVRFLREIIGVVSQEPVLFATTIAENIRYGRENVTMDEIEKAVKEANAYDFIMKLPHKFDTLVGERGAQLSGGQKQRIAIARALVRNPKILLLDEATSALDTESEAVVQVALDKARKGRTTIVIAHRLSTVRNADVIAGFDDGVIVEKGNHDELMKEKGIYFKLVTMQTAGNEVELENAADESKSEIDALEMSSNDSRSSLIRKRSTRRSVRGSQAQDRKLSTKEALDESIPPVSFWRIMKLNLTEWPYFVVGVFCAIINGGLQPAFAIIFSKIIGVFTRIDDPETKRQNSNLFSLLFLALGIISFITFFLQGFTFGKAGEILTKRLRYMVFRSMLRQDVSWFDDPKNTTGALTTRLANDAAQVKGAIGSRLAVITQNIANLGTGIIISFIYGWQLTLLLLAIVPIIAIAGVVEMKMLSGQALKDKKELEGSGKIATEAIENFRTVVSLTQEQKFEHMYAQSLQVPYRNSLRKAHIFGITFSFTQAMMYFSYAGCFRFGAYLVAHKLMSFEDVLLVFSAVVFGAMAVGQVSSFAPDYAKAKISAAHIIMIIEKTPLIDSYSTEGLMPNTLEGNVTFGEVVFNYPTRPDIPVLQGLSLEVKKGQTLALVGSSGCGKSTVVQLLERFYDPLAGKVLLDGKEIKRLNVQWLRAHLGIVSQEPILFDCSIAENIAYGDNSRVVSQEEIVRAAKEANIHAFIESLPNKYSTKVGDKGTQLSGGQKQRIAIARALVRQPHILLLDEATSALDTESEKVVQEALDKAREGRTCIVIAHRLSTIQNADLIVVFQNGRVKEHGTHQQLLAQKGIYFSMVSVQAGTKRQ

For `CC(C)(C)c1cc(C(C)(C)CO)c(O)cc1NC(=O)c1c[nH]c2ccccc2c1=O` [M1‐IVA], the “GLSM ratio range for AUC and Cmax with/without ciprofloxacin” value [1] was 0.96−1.10, the “Increase of AUC with itraconazole” value [2] was 3.6 fold and the “Increase of Cmax (GLSM ratio) with itraconazole” value (“Increase of Cmax (GLSM ratio)” below) [2] was 1.8 fold. For the same compound, the “Pharmacological activity/potency relative to parent” value [3] was “approximately one sixth the potency of ivacaftor”.
In the case of `CC(C)(C)c1cc(C(C)(C)C)c(NC(=O)c2c[nH]c3ccccc3c2=O)cc1O` [ivacaftor], the “Metabolic pathway in vitro” value [4] is listed as “primarily metabolized via CYP3A‐mediated oxidation”, the “Decrease in exposure with lumacaftor” value ([5]; ivacaftor administered with lumacaftor) is listed as ~ 80% and the “Potential for causing DDIs via CYP3A inhibition or induction” value [6] is listed as “low potential”. The “CYP3A inhibition, clinical data” value ([7]; ivacaftor alone) was “weak inhibitor of CYP3A”, the “P‐gp inhibition, clinical study” value [8] was “weak inhibitor of P‐gp; also recorded: mild P‐gp inhibitor” and the “Eliminated in the feces after metabolic conversion” value ([9]; oral ivacaftor) was 87.8%. For the same compound, the “Urinary excretion as unchanged drug” value ([9]; oral ivacaftor) was “negligible”, the “Total radioactivity recovered in the urine” value ([9]; oral ivacaftor, ivacaftor and its metabolites) was 6.6% and the “Food effect on exposure” value [10] was “increased threefold”. The half-life [11] was 9.3 h, the “Increase of AUC with itraconazole” value [2] was 15.6 fold and the “Increase of Cmax (GLSM ratio)” value [2] was 8.6 fold. For the same compound, the “P‐gp inhibition in vitro” value [12] was “P‐gp inhibitor in vitro”.
With `C[C@H]1O[C@@H](O[C@H]2[C@@H](O)C[C@H](O[C@H]3[C@@H](O)C[C@H](O[C@H]4CC[C@@]5(C)[C@H](CC[C@@H]6[C@@H]5C[C@@H](O)[C@]5(C)[C@@H](C7=CC(=O)OC7)CC[C@]65O)C4)O[C@@H]3C)O[C@@H]2C)C[C@H](O)[C@@H]1O` [Digoxin, digoxin] the CL renal [13] was 121 mL/min, the CL renal ([13]; 0.5 mg) was 128 mL/min and the “Increase of AUC with tezacaftor/ivacaftor” value [13, 15] was 30%. The “Increase of Cmax with tezacaftor/ivacaftor” value [13, 15] was 32%.
For `CC1(C)c2cc3cc(NC(=O)C4(c5ccc6c(c5)OC(F)(F)O6)CC4)c(F)cc3n2CC(CO)OC1O` (centres unmarked) [M1‐TEZ], the “GLSM ratio range for AUC and Cmax with/without ciprofloxacin” value [1] was 1.17–1.25, the “Decrease of AUC with itraconazole” value [2] was ~ 40% and the “Decrease of Cmax with itraconazole” value [2] was ~ 40%.
In the case of `CC(C)(C)c1cc(C(C)(C)C(=O)O)c(O)cc1NC(=O)c1c[nH]c2ccccc2c1=O` [M6‐IVA], the “GLSM ratio range for AUC and Cmax with/without ciprofloxacin” value [1] is given as 0.96−1.10, the “Decrease of AUC with itraconazole” value [2] is given as 30% and the “Pharmacological activity/potency relative to parent” value [3] is given as “not considered pharmacologically active”.
In the case of `CC(C)(CO)c1cc2cc(NC(=O)C3(c4ccc5c(c4)OC(F)(F)O5)CC3)c(F)cc2n1C[C@@H](O)CO` [tezacaftor], the “Metabolic pathway in vitro” value [4] is given as “primarily metabolized via CYP3A‐mediated oxidation; also recorded: direct glucuronidation as a minor metabolic pathway”, the “Potential for causing DDIs via CYP3A inhibition or induction” value [6] is given as “low potential” and the “Administered dose excreted in urine as unchanged drug” value ([9]; oral 14C‐tezacaftor) is given as “Less than 1%”. The “Dose recovered in urine” value ([9]; oral 14C‐tezacaftor, mostly as the M2 metabolite) was “about 14%”, the “Dose excreted in the feces” value ([9]; oral 14C‐tezacaftor, unchanged or as the M2 metabolite) was 72% and the Mean overall recovery ([9]; oral 14C‐tezacaftor, up to 21 days after the dose) was 86%. The “Dose proportionality of exposure” value ([10]; doses ranging from 10−300 mg) was “approximately dose‐proportional”, the “Food effect on exposure” value [10] was “no food effect” and the half-life [11] was about 156 h. The “Increase of AUC with itraconazole” value [2] was 4 fold, the “Increase of Cmax (GLSM ratio)” value [2] was 2.8 fold and the “P‐gp inhibition in vitro” value [12] was “not an inhibitor”.
For `Cc1ccc(NC(=O)C2(c3ccc4c(c3)OC(F)(F)O4)CC2)nc1-c1cccc(C(=O)O)c1` [lumacaftor, reference compound], the CYP3A induction [5] is listed as “strong inducer of CYP3A”.
In the case of `Cc1ncc2n1-c1ccc(Cl)cc1C(c1ccccc1F)=NC2` [Midazolam, midazolam], the “Increase of exposure with ivacaftor alone” value ([7]; midazolam coadministered with ivacaftor alone) is listed as 50%, the “Effect of TEZ/IVA on PK” value [14] is listed as “↔” and the “GLSM ratio (90% CI) with/without TEZ/IVA, AUC” value [14] is listed as 1.12 (1.01–1.25). For the same compound, the “GLSM ratio (90% CI) with/without TEZ/IVA, Cmax” value [14] was 1.13 (1.01–1.25).
